Test results: patent US20160175241A1, “COMPOSITION FOR SKIN ANTI-AGEING TREATMENT” (POLICHEM SA, priority 2013, published 2016)

How the values were obtained:
[1] = tested on: skin structure and firmness; details: two concentrations, 0.1% and 1%; cited from earlier work
[2] = tested on: Reactive oxygen species (ROS) measured on keratinocytes after exposure to Ultraviolet light A (UVA); assay: ROS formation in keratinocytes after UVA exposure (DCA fluorescence); type: cell-based; details: Homo sapiens, Keratinocyte, light or radiation study, 0.15 mg/ml (positive control)
Method: To the test the different antioxidant activity of the composition according to the Example 1 versus the Comparative Compositions 2-5 of the Example 2, they were tested at different concentrations (0.500-0.016 mg/ml) on Reactive oxygen species (ROS) measured on keratinocytes after exposure to Ultraviolet light A (UVA), with and without the tested sample, evaluating the cell viability after UVA stress by Neutral red uptake (NRU) test: cell survival assay using cultured human keratinocytes in monolayer cultures with and without the tested sample.
Human primary keratinocytes come from paediatric foreskins, with ethic committee's permission, from pre-planned routine surgery. The epidermis was separated from dermis by incubation with […] and trypsinized to generate single cell suspension.
Keratinocytes were cultivated in Dulbecco's modified Eagle's and Ham's F12 media (3:1) enriched with 10% foetal calf serum (v/v) and specific enrichments.
These cells multiply in culture until a cell monolayer is reached. […] Once a confluence of 60-70% has been reached, fresh medium is added with scalar dilutions of the tested sample. Non-treated cells are used as negative controls. At this stage the cell cultures were treated with different dilutions of the test compound and of the controls to obtain final concentrations ranging from 0.5 to 0.016 mg/ml. For each dilution, three replicate tests were performed. The product was dissolved in the culture medium. […] The cell vitality is determined after UVA exposure and without UV exposure.
After having exposed the cells to the tested sample, the cell culture medium is removed and the cells are washed in PBS. […] DCA is reacting with free radicals in the medium, originating a fluorescent derivative, and the fluorimeter reading allows obtaining a quantitative data related to the ROS content in the cells.
After suitable incubation, the DCA solution has been discharged and the cells have then been exposed for different times to UVA irradiation and soon after read in the fluorimeter, as described (Toxicol. Letters 1997-93:47-54).

Row | SMILES | improving skin structure and firmness [1] | inhibition at 150 µg/mL ([2]; 4′ UVA (1 J/cm2)) | inhibition at 150 µg/mL ([2]; 8′ UVA (2 J/cm2)) | inhibition at 150 µg/mL ([2]; 12′ UVA (3 J/cm2))
1 | COc1cc(O)c(CC=C(C)C)c(O)c1C(=O)/C=C/c1ccc(O)cc1 [xanthohumol] | resulted efficacious |  |  | 
2 | O=C1O[C@H]([C@@H](O)CO)C(O)=C1O [Vitamin C] |  | 19.6% | 13.4% | 14.8%
